Experimental findings from patent US20190367516A1 (Bayer Pharma Aktiengesellschaft, priority 2015, published 2019) are described below.

Structures are written as SMILES.

The first experiment has as its target T1, human M2 receptor (Homo sapiens, UniProt P08172).
T1 sequence (P08172 1-466): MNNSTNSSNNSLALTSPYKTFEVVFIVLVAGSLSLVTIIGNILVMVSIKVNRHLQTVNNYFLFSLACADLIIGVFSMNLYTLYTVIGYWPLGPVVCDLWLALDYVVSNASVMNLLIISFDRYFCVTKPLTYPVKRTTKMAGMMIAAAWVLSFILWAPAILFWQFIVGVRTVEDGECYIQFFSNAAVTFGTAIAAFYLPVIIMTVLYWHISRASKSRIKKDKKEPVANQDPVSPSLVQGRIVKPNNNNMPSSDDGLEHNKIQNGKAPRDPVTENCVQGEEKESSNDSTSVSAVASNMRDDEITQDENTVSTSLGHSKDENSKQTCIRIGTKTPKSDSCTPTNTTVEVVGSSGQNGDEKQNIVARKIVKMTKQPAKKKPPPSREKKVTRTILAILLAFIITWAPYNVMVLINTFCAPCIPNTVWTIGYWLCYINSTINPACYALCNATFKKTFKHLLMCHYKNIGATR
The settings on record: Receptor activity EC50, M2-GIRK1/4 activation test, acetylcholine at EC20; allosteric potency; in some cases mean values from two or more determinations.
Description: Functional M2-GIRK1/4 Activation Test
The binding of orthosteric agonists (endogenous ligand: acetylcholine) to the M2 receptor leads to receptor activation or a change in conformation of the receptor in the manner of a shift in equilibrium in favour of the active receptor conformation.
The agonist-induced change in conformation of the M2 receptor results in a Gαi protein activation. […] Under physiological conditions, the result is then a selective efflux of potassium from the cell along the electrochemical gradient. […] The extent of hyperpolarization can therefore be regarded as a measure of the activation of the M2 receptor.
The test cell used is a recombinant CHO-DUKX cell line which has been stably transfected with cDNA coding for the human M2 receptor and with cDNA coding for both GIRK1/4 subunits (CHO-DUKX-M2-GIRK). The transmembrane potential, or the relative changes in the transmembrane potential as a function of substance addition or M2 activation, is determined by means of a voltage-sensitive dye (FLIPR Membrane Potential Assay Kit Blue, Molecular Devices # R8034) and the measurement of cell fluorescence using a proprietary fluorescence imaging instrument.
Determination of the Allosteric Potency of the Test Substances (EC50 Value)
The sowing medium consisted of MEM alpha medium (supplemented with 5% FCS, 2% Glutamax, no genticin).
For the particular measurement, the medium was removed and the cells were laden with the voltage-sensitive dye for at least 6 min at room temperature (30 μl of loading buffer per 384-well). This was followed, in a first measurement, by the determination of the fluorescence for the resting transmembrane potential for a period of 5 sec. Thereafter, 10 μl in each case of the test substances diluted in loading buffer were added, followed by a second measurement to determine the transmembrane potential for a period of 50 sec. Finally, the cells were admixed with 10 μl of agonist solution (acetylcholine dissolved in loading buffer). Acetylcholine was used at the concentration corresponding to the EC20, which had been determined in a preliminary test. The M2-mediated GIRK1/4 activation or hyperpolarization was then monitored in a third measurement over a period of 60 sec. The EC50 value (degree of allosteric potency of test compound) and the efficiency (measure of the boosting of the acetylcholine effect at an EC20 acetylcholine concentration) were determined with the aid of a 4-parameter logistic function (Hill function).
Broadly, the EC50 is the concentration that produces a half-maximal response. The compound `CC[C@@H](NC(=O)c1cn(-c2ccc(F)cc2F)c2nc(N3CCOC(C(F)F)C3)ccc2c1=O)C(F)(F)F` (single isomer, unassigned) [Example 265] returned a concentration giving a half-maximal response (EC50) of 23700 nM. Same read-out and setting: under `CC[C@@H](NC(=O)c1cn(-c2ccccc2C(F)(F)F)c2nc(N3C[C@@H](O)CC3=O)ccc2c1=O)C(F)(F)F` (single isomer, unassigned) [Example 269] stands 210 nM; under `CC[C@@H](NC(=O)c1cn(-c2ccccc2C(F)(F)F)c2nc(N3C[C@@H](O)CC3=O)ccc2c1=O)C(F)(F)F` (single isomer, unassigned) [Example 270], 1600 nM; under `CC[C@@H](NC(=O)c1cn(-c2c(F)cccc2F)c2nc(N3CCC(C)(O)C3)ccc2c1=O)C(F)(F)F` (single isomer, unassigned) [Example 277], 78 nM. `O=C(NC(c1ccccc1Cl)C(F)(F)F)c1cn(-c2ccccc2F)c2nc(N3CCC(O)C3=O)ccc2c1=O` (single isomer, unassigned) [Example 290] displayed a 50% effective concentration (EC50) of 312 nM. Still for that read-out and setting: with `O=C(NC(c1ccccc1Cl)C(F)(F)F)c1cn(-c2ccccc2F)c2nc(N3CCC(O)C3=O)ccc2c1=O` (single isomer, unassigned) [Example 291] the figure was 673 nM; with `CC[C@@H](NC(=O)c1cn(-c2c(F)cccc2F)c2nc(N3CCC(O)C3=O)ccc2c1=O)C(F)(F)F` (single isomer, unassigned) [Example 293], 73 nM; with `CC[C@@H](NC(=O)c1cn(-c2ccc(F)cc2F)c2nc(N3CC(C)CC3=O)ccc2c1=O)C(F)(F)F` (single isomer, unassigned) [Example 302], 17 nM. Still for that read-out and setting: with `CC[C@@H](NC(=O)c1cn(-c2ccc(F)cc2F)c2nc(N3CC(C)CC3=O)ccc2c1=O)C(F)(F)F` (single isomer, unassigned) [Example 303] the figure was 60 nM; with `C[C@H](NC(=O)c1cn(-c2c(F)cccc2F)c2nc(N3CC4CC4(O)C3)ccc2c1=O)C(F)(F)F` (single isomer, unassigned) [Example 312], 72 nM.

In the case of `C[C@H](NC(=O)c1cn(-c2c(F)cccc2F)c2nc(N3CC4CC4(O)C3)ccc2c1=O)C(F)(F)F` (single isomer, unassigned) [Example 313], the 50% effective concentration (EC50) amounted to 71 nM. The same measure, in the same setting: with `C[C@H](NC(=O)c1cn(-c2c(F)cc(F)cc2F)c2nc(N3CC4CC4(O)C3)ccc2c1=O)C(F)(F)F` (single isomer, unassigned) [Example 317] the figure was 26 nM; with `C[C@H](NC(=O)c1cn(-c2c(F)cc(F)cc2F)c2nc(N3CC4CC4(O)C3)ccc2c1=O)C(F)(F)F` (single isomer, unassigned) [Example 318], 14 nM. On the same count and under the same terms, with `CC(C)(CC(F)(F)F)NC(=O)c1cn(-c2c(F)cc(F)cc2Cl)c2nc(N3C[C@@H](O)[C@H](O)C3)ccc2c1=O` (single isomer, unassigned) [Example 392] the figure was 6 nM; with `CC(C)(CC(F)(F)F)NC(=O)c1cn(-c2c(F)cc(F)cc2Cl)c2nc(N3C[C@@H](O)[C@H](O)C3)ccc2c1=O` (single isomer, unassigned) [Example 393], 125 nM.

The same experiment, now with this note: Receptor activity EC50, allosteric potency at EC20 acetylcholine; M2-GIRK1/4 reporter cells; in some cases mean of two or more determinations.
The compound `CCC(COC(F)(F)F)NC(=O)c1cn(-c2c(F)cc(F)cc2F)c2nc(N3C[C@@H](O)CC3=O)ccc2c1=O` (single isomer, unassigned) [Example 411] returned an EC50 of 21 nM. This counts as double-digit nanomolar. The compound `CC[C@H](NC(=O)c1cn(-c2c(F)cc(F)cc2Cl)c2nc(N3CCC(C)C3=O)ccc2c1=O)C(F)(F)F` (single isomer, unassigned) [Example 423] came in with an EC50 of 3150 nM. This EC50 is about 150-fold higher than that of the compound before. As to `CC[C@@H](NC(=O)c1cn(-c2ccc(F)cc2F)c2nc(N3C(=O)CCC3C)ccc2c1=O)C(F)(F)F` (single isomer, unassigned) [Example 427], the concentration giving a half-maximal response (EC50) came to 19 nM.

The same experiment, now with this note: boosting of the acetylcholine effect at EC20 acetylcholine concentration; M2-GIRK1/4 reporter cells.
In turn, `CC[C@H](NC(=O)c1cn(-c2c(F)cc(F)cc2Cl)c2nc(N3CCC(C)C3=O)ccc2c1=O)C(F)(F)F` (single isomer, unassigned) [Example 423] displayed an Efficiency of 53.5%.

Still in this experiment, the particulars now being: read-out: Efficiency, boosting of the acetylcholine effect at EC20 acetylcholine concentration; M2-GIRK1/4 reporter cells.
For the compound `CCC(COC(F)(F)F)NC(=O)c1cn(-c2c(F)cc(F)cc2F)c2nc(N3C[C@@H](O)CC3=O)ccc2c1=O` (single isomer, unassigned) [Example 411], the Emax was 100%. The same measure, in the same setting: under `CC[C@@H](NC(=O)c1cn(-c2ccc(F)cc2F)c2nc(N3C(=O)CCC3C)ccc2c1=O)C(F)(F)F` (single isomer, unassigned) [Example 427] stands 91.5%.
